Measured values from patent publication US6159940A, “Method for modulating hemopoiesis” (Immunotech Developments Inc., priority 1999, dated 2000).

How the values were obtained:
[1] = Clinical study: tolerance, biochemical indices, humoral status; type: in vivo, patients
From the text: The clinical study of H-Ile-Glu-Trp-OH was continued in groups of patients with pronounced secondary pathological changes in their immune system. The primary task of the first stage of the investigation was to observe the preparation tolerance, to reveal toxic, allergic and other reactions, hemogram dynamics and biochemical indices. Further investigation, along with further monitoring of the major clinical and laboratory parameters, included evaluation of the immunological status of a patient before and after the immunopeptide treatment.
Before instituting the treatment, examination was carried out including case history, clinical, laboratory and instrumental investigations. Necessary morphological investigations were performed to verify the diagnosis. There were also the results of hemogram dynamics before and after each treatment course of H-Ile-Glu-Trp-OH. After these courses the biochemical indices and urine tests were examined again. X-ray, ultrasonic and morphological examinations were repeated on indication.
Humoral immunity was also investigated: the content of different types of immunoglobulins, protein fractions, antibodies to thyroid, and the Coombs test (the latter was performed in the case of haemolytic anaemia).
One ml daily, intranasally, once or twice in divided doses, for 5 days. The course was repeated after a 3-week interval. To those patients who received a cytostatic mono- or polychemotherapy, H-Ile-Glu-Trp-OH was administered from the first day of the break in the cytostatic treatment.

[2] = system: karyocytes in spleen and thymus; assay: Nucleated cell counts in thymus and spleen per mg of organ weight, radiation immunodeficiency; type: in vivo, (CBA×C57BL)F1 mice; conditions: 2 Gy
Description: Females and male (CBA×C57BL)F1 mice, aged about 2.5 months weighing about 20 g, were irradiated with gamma-rays using a "Luch-1" apparatus. Immunological activity was assessed according to Jerne (Antibody Forming Cells count--AFC). T-cell count in spleen was determined by the method of spontaneous rosette formation with sheep erythrocytes (E-FRC). The peptide was injected intramuscularly.
Mice were irradiated in a dose of 2 Gy, the peptide was injected in the dose of 10 μg/kg according to the following scheme (to determine T-cell count by the method of spontaneous rosette formation): 1 time--an hour after the irradiation; 2 times--an hour, and a day after irradiation; 3 times--an hour, a day, and two days after the irradiation; 4 times--an hour, a day, two days and three days after the irradiation. The intact mice recieved the peptide 3 or 4 times. The control group (2 Gy) recieved injections of physiological solution according to the same schedule. On completion of the treatment course, 10 mice from each group were immunized with sheep erythrocytes (SE) and 4-5 days later AFC counts were determined in their spleens. The rest of the mice were used to find T-cell count by the method of spontaneous rosette formation. The state of the organs of immune system (spleen and thymus) in mice with radiation immunodeficiency against the background of H-Ile-Glu-Trp-OH treatment was also listed by nucleated cell counts in thymus and spleen per mg of organ weight. AFC/mg Spleen weight is presented as an average of two experiments.

[3] = system: CFU-S; assay: Regeneration of the CFU-S population in bone marrow of irradiated mice (4 Gy); type: in vivo
From the text: a) Scheme 1: mice received the peptide immediately after irradiation, daily. The mice were divided into groups: a control group--irradiated mice (4 Gy), and test groups--irradiated mice (4 Gy) received the peptide 1, 2, 3, and 4 times daily. Blood samples were taken four hours after the last peptide injection and on the 7th, 10th, and 16th day after the irradiation. Determined were total count of nucleated blood cells (NC) and lymphocyte percentage of them; nucleated cells and the CFU-S population in femoral bone marrow were counted on the 4th, 8th, and the 14th day.
From each group at least five mice were killed, their bone marrow was taken out and used to prepare the cell suspension, which was injected to lethally irradiated mice. After 9 days, CFU-S was counted in irradiated (4 Gy) donors receiving the peptide by counting the colonies grown on spleen. It was noted that with intramuscular administration of the peptide the CFU-S count in irradiated mice bone marrow was steadily growing starting from the 4th day, leaving the control CFU-S far behind.
b) According to scheme 2, the peptide injections were made starting from the 3rd day after the irradiation, at the same time of maximum depletion of the pool of mature nucleated cells and the bone marrow. The groups of mice were formed in the same way as in the previous scheme. Blood samples were taken 4 hours after the last injection i.e. on day 6, as well as on days 11, 14, 18, 21. Tables 9 and 10 present the data on karyocyte and lymphocyte counts in blood (per 1 mm^3) of mice treated according to scheme 2.

[4] = system: hemopoietic progenitor cells; assay: Exogenous spleen colonies from irradiated bone marrow cells; type: in vivo, mice; conditions: day 9
Description: For this purpose, known methods using exogenous spleen colonies were applied. […] Different doses of the peptide were injected intravenously (i.v.), intraperitoneally (i.p.), or intramuscularly (i.m.) to lethally irradiated recipients an hour after the injections of irradiated bone marrow. Colonies were counted on day 9. 350 mice were used as test animals. The data for each group are the average of three tests.

H-Ile-Glu-Trp-OH
protein fractions and immunoglobulins in patients' sera ([1]; 1-1.5 months after the treatment): No dynamics of these indices was found | dynamics of biochemical indices ([1]; before and after 1-3 treatment courses): revealed no changes | AP dynamics and ECG ([1]; human, in vivo): failed to reveal any changes | adverse reactions ([1]; prolonged administration (5-6 courses), intranasally): no toxic reactions | Karyocyte Count, Spleen ([2]; 1 Injection): 1120 ± 73 10^3 /mg | Karyocyte Count, Thymus ([2]; 1 Injection): 1860 ± 200 10^3 /mg | Karyocyte Count, Spleen ([2]; 2 Injection): 890 ± 80 10^3 /mg | Karyocyte Count, Thymus ([2]; 2 Injection): 1840 ± 380 10^3 /mg | Karyocyte Count, Spleen ([2]; 3 Injection): 980 ± 80 10^3 /mg | Karyocyte Count, Thymus ([2]; 3 Injection): 2590 ± 400 10^3 /mg | Karyocyte Count, Spleen ([2]; 4 Injection): 1160 ± 100 10^3 /mg | Karyocyte Count, Thymus ([2]; 4 Injection): 2480 ± 280 10^3 /mg | cellular composition of bone marrow ([3]; scheme 1, i.m.): did not affect | regeneration of the CFU-S population ([3]; scheme 1, i.m. (FIG. 1)): markedly stimulated regeneration of the CFU-S population | CFU-S (absolute) in femoral bone marrow ([3]; scheme 2, 1 Time, Day 7): 459 ± 26 | CFU-S (absolute) in femoral bone marrow ([3]; scheme 2, 1 Time, Day 11): 858 ± 67 | CFU-S (absolute) in femoral bone marrow ([3]; scheme 2, 1 Time, Day 14): 1197 ± 75 | CFU-S (absolute) in femoral bone marrow ([3]; scheme 2, 2 Time, Day 7): 298 ± 27 | CFU-S (absolute) in femoral bone marrow ([3]; scheme 2, 2 Time, Day 11): 846 ± 44 | CFU-S (absolute) in femoral bone marrow ([3]; scheme 2, 2 Time, Day 14): 902 ± 56 | CFU-S (absolute) in femoral bone marrow ([3]; scheme 2, 3 Time, Day 7): 305 ± 33 | CFU-S (absolute) in femoral bone marrow ([3]; scheme 2, 3 Time, Day 11): 1077 ± 56 | CFU-S (absolute) in femoral bone marrow ([3]; scheme 2, 3 Time, Day 14): 1166 ± 68 | CFU-S (absolute) in femoral bone marrow ([3]; scheme 2, 4 Time, Day 7): 431 ± 48 | CFU-S (absolute) in femoral bone marrow ([3]; scheme 2, 4 Time, Day 11): 1147 ± 55 | CFU-S (absolute) in femoral bone marrow ([3]; scheme 2, 4 Time, Day 14): 1434 ± 89 | Colony Count ([4]; bone marrow 1 Gy, 2.5 mcg/Kg i.v.): 6.0 ± 0.7 | Colony Count ([4]; bone marrow 1 Gy, 10 mcg/Kg i.m.): 10.6 ± 0.8 | Colony Count ([4]; bone marrow 1 Gy, 10 mcg/Kg i.p.): 8.2 ± 0.7 | Colony Count ([4]; bone marrow 1 Gy, 10 mcg/Kg i.v.): 8.7 ± 0.4 | Colony Count ([4]; bone marrow 1 Gy, 25 mcg/Kg i.v.): 7.6 ± 0.4 | Colony Count ([4]; bone marrow 1 Gy, 50 mcg/Kg i.v.): 7.1 ± 0.5 | Colony Count ([4]; bone marrow 1 Gy, 100 mcg/Kg i.v.): 6.0 ± 0.5 | Colony Count ([4]; bone marrow 1 Gy, 200 mcg/Kg i.v.): 5.3 ± 0.7 | Colony Count ([4]; bone marrow 1 Gy, 500 mcg/Kg i.v.): 4.2 ± 0.3 | Colony Count ([4]; bone marrow 3 Gy, 10 mcg/Kg i.v.): 2.3 ± 0.3
